# Reference: PubChem BioAssay AID1645848
# Details: buffer; pH 7.4; 6.0 h; 150.0 µM
row,SMILES,solubility kinetic [µg/mL]
1,O=C(/C=C/c1cn(CC(O)CN2CCCCCC2)c2ccccc12)c1ccc(Br)cc1 (stereo not given),< 1
2,COc1ccc(-n2nc(C3CCN(C(=O)c4ccccc4)CC3)[nH]c2=O)cc1,> 56
3,CCN1CCN(CCCNC(=O)c2ccc3c(c2)sc2nc(-c4ccc(OC)cc4)cn23)CC1,> 71
4,Cc1ccnc(NC(=S)N2CCN(c3cc(C(F)(F)F)cc(C(F)(F)F)c3)CC2)c1,6.7
5,CC[C@H](NC(=O)[C@H](C)NC)C(=O)N1C[C@@H](O)C[C@H]1Cc1c(-c2[nH]c3cc(F)ccc3c2C[C@@H]2C[C@H](O)CN2C(=O)[C@H](CC)NC(=O)[C@H](C)NC)[nH]c2cc(F)ccc12,75.2
6,CCN(c1ccccc1)S(=O)(=O)c1c(C)nc2scc(C)n2c1=O,> 54
7,O=C(NC1CC1)C1CCCN1C(=O)c1cccc(-c2ccccn2)c1 (stereo not given),> 74
8,CCCN(C(=O)c1sc2nc3n(c(=O)c2c1C)CCCC3)c1ccccc1C,1.83
9,CCOc1ccc(CCNC(=O)c2cc3sccc3n2Cc2ccccn2)cc1OCC,< 1
10,CN(C)c1ccc(-c2cc[nH]c(=O)c2N)cc1,> 34
11,Cc1ccc(C(=O)[C@H]2CC[C@@H](C(=O)Nc3ccc(S(=O)(=O)Nc4nccs4)cc3)C2)cc1C,2.28
12,COc1cc(=O)n2c(c1C(=O)N(C)Cc1cscn1)CCN(C(=O)c1ccc(C)cc1C)CC2,> 71
13,CCCc1c(CC)c(=N)c2ccccc2n1C.I,> 34
14,Brc1ccc(-c2csc(N3CCCCC3)n2)cc1,< 1
15,CC(=O)N1CCc2cc(S(=O)(=O)NCCC3=CCCCC3)ccc21,4.37
16,CC(C)c1ccc2oc3nc(N)c(C(=O)O)cc3c(=O)c2c1,> 44
17,Cc1ccnc(NC(=S)N2CC[C@@H](Nc3cccc(C(F)(F)F)c3)C2)c1,7.92
18,COc1ccc(C2(C(=O)N3CCC(n4cc(-c5nc(C)no5)nn4)CC3)CC2)cc1,> 60
19,CC(C)Oc1cccc(-c2cnc(N3CCC(C(N)=O)CC3)s2)c1,1.43
20,O=C1CCCC2=C1C1(CCSCC1)N=C(Nc1nc3ccccc3o1)N2,< 1
21,COc1ccc2c(c1)CN(C(=O)CCN1CCC(Cc3ccccc3)CC1)CCS2,> 63
22,CCOC(=O)c1c[nH]c2c3c(ccc2c1=O)CCCC3,34
23,NC(=O)C1CCN(c2nc(-c3cccc(N)c3)cs2)CC1,> 45
24,CCc1cccc(NC(=O)c2c(C)oc3nc(C)nc(N4CCCC4)c23)c1,14.8

row,SMILES,solubility kinetic [µg/mL]
1,O=C1Nc2c(Cl)cccc2/C1=C\c1cc(Cl)c(O)c(Cl)c1,7.3
2,CCOC(=O)N1CCN(Cc2nc3c(c(=O)n(C)c(=O)n3C)n2Cc2ccc(F)cc2)CC1,> 68
3,COc1ccnc(NC(=S)N2CCN(c3cccc(C(F)(F)F)n3)CC2)c1,< 1
4,NC(=O)C(=O)N/N=C/c1ccc([N+](=O)[O-])o1,> 33
5,Clc1ccccc1CSc1nc2ncc(Br)cc2[nH]1,< 1
6,Cn1cc(Cl)c(C2N=C(Nc3nc4ccccc4o3)NC3=C2C(=O)CCC3)n1 (stereo not given),36.4
7,CCOc1ccc(CCNC(=O)c2cc3cccnc3n2Cc2cccc(C)n2)cc1OCC,43.8
8,Cc1cccc(-c2noc([C@@H]3Cc4nc[nH]c4CN3C(=O)CC(C)(C)CC(=O)O)n2)c1,> 63
9,CCS(=O)(=O)N1CC(CC#N)(n2cc(-c3ncnc4[nH]ccc34)cn2)C1,> 55
10,CC1CCCCN1c1ncnc(N)c1[N+](=O)[O-] (stereo not given),> 35
11,Cc1ccc(S(=O)(=O)Nc2cnccc2C(=O)Nc2nc(C(=O)O)cs2)cc1,> 62
12,CC(C)(C)C1CCc2[nH]c3ccccc3c(=O)c2C1 (stereo not given),1.88
13,CC1(C)C[C@@H]2C[C@@](C)(CN2S(=O)(=O)c2ccc(C(=O)Nc3ccc(Cl)c(S(=O)(=O)N4CCOCC4)c3)cc2)C1,< 1
14,O=C(NC1CC1)c1nc(-c2cccnc2)c2ccccn12,> 62
15,NC(=O)C1CCN(c2nc(-c3ccc(Oc4ccccc4)cc3)cs2)CC1,< 1
16,CC(=O)c1ccc(N2CCN(S(=O)(=O)c3cc4c(cc3Cl)NC(=O)C4)CC2)cc1,1.16
17,C[C@H]1CN(C(=O)c2nn(C)c3ccccc23)C[C@@H]1c1nc(-c2cccnc2)no1,19.7
18,O=C1CCCCc2cc(O)c(O)cc21,> 28
19,O=C1CCCC2=C1C(c1ccccc1C(F)(F)F)N=C(Nc1nc3ccccc3o1)N2 (stereo not given),< 1
20,N[C@@H](Cc1cc(Br)c(O)c(Br)c1)C(=O)O,> 50
21,CC(C)c1c(-c2ccccc2)nc2c(C#N)c[nH]n2c1=O,> 41
22,COC(=O)Nc1nc2ccc(SC(C)C)cc2[nH]1,< 1
23,CCOc1ccc(-c2cn3c(n2)sc2cc(C(=O)NCCCN(CC)CC)ccc23)cc1,> 67

# Next, values leading:
row,solubility kinetic [µg/mL],SMILES
1,< 1,O=C(c1ccccc1)N1CCN(c2nc(-c3ccc(Br)cc3)cs2)CC1
2,40.5,CC[S+](=O)([O-])Nc1ccccc1C(=O)Nc1nc(-c2ccccc2)cs1
3,28.1,COCCNC(=O)c1ccc(-c2ncc3cnc(-c4cccc(F)c4)cn23)cc1
4,49.8,O=C(Nc1nc(-c2ccccc2)cs1)c1ccncc1NS(=O)(=O)c1ccc(F)c(F)c1
5,1.42,O=S(=O)(Nc1ccccc1)c1ccc(NCc2ccc(Br)cc2O)cc1
6,> 43,O=C(Cc1ccc(Cl)cc1)Nc1cnccc1C(=O)O
7,< 1,CNc1oc(-c2cccc(-c3ccccc3)c2)nc1C#N
8,< 1,O=[S+]([O-])(Nc1cccc2ccccc12)c1ccc(NCc2ccc(Cl)cc2O)cc1
9,< 1,N#CC1(c2ccc(NC(=O)c3cccnc3NCc3ccncc3)cc2)CCCC1
10,4.24,Cc1ccc(-c2cc(C(=O)Nc3ncco3)c3ccccc3n2)cc1C
11,28.1,Cc1ncc2c(c1CNC(=O)Cn1cnc3ccccc3c1=O)CCNC2
12,8.84,CCOc1ccc(CCNC(=O)c2ccc3ccccc3n2)cc1OCC
13,31.7,CC[C@H](NC(=O)c1c(O)c(-c2ccccc2)nc2ccccc12)c1ccccc1
14,< 1,Cc1ccc(S(=O)(=O)Nc2cc(Cl)cc(C(=O)Nc3nc(-c4ccccc4)cs3)c2)cc1
15,< 1,COC(=O)c1ccc(Nc2nc(-c3ccncc3)nc3ccccc23)cc1OC
16,22,O=C(Cc1cccs1)NCc1nnc2ccc(-c3ccccc3)nn12
17,40.3,CCCn1cnc2cc(NCc3ccc(OC)cc3OC)ccc21
18,25.1,CN1CCN(C2=Nc3cc(Cl)ccc3Nc3ccccc32)CC1
19,< 1,O=C(Nc1nc(-c2ccccc2)cs1)c1ccncc1NS(=O)(=O)c1ccc(Cl)cc1
20,< 1,Cc1ccc(S(=O)(=O)Nc2cc(Cl)ccc2C(=O)Nc2nc(-c3ccccc3)cs2)cc1
21,2.03,Cc1cccc(C)c1C(=O)Nc1cccc([S+](=O)([O-])N2CCCCCC2)c1
22,< 1,CCOc1ccccc1CNS(=O)(=O)c1ccc(-c2cnc(C3CC3)o2)cc1
23,< 1,COc1cccc(CNc2ccc(S(=O)(=O)Nc3ccccc3)cc2)c1O
24,> 87,COCCn1ccc2c(C3=CCOCC3)nc(-c3cccc(NC(C)=O)c3)cc21
25,< 1,O=C(Nc1nc(-c2ccccc2)cs1)c1ccccc1[N+](=O)[O-]
26,> 66,Cc1noc(C)c1S(=O)(=O)Nc1cnccc1C(=O)Nc1nc(-c2ccccc2)cs1
27,< 1,Cc1ccc(CN2C(=O)C(O)(CC(=O)c3ccc(C)cc3)c3ccccc32)cc1 (stereo not given)

row,solubility kinetic [µg/mL],SMILES
1,< 1,CC1=C(C(=O)Nc2ccccc2)C(c2ccccc2Br)N=C(Nc2nc3ccccc3o2)N1 (stereo not given)
2,4.18,CNC(=O)c1ccccc1Nc1nc(Nc2ccc(N3CCOCC3)cc2OC)ncc1Cl
3,< 1,COC(=O)c1ccc([C@H]2c3[nH]c4ccccc4c3C[C@H](C(=O)OC)N2C(=O)CCl)cc1
4,< 1,COc1cccc(CNc2ccc([S+](=O)([O-])Nc3cc4ccccc4s3)cc2)c1O
5,< 1,CCc1ccc(C2Sc3ccccc3NC3=C2C(=O)c2ccccc23)cc1 (stereo not given)
6,7.05,O=C(Nc1ccc([S+](=O)([O-])Nc2nccs2)cc1)c1ccccn1
7,1.03,COc1cccc(C(=O)Nc2nc(-c3nnn(-c4ccccc4C(F)(F)F)c3C)ns2)c1
8,2.72,OCc1ccc(-c2nn(Cc3ccccc3)c3ccccc23)o1
9,3.29,O=C(CCCc1ccc2cccnc2n1)NCc1cc(-c2ccc(F)c(C(F)(F)F)c2)no1
10,< 1,Cc1ccc(CNc2ccccc2C(=O)Nc2nc(-c3ccccc3)cs2)cc1
11,3.73,Cc1ccc(-c2cc(C(=O)Nc3ccc(S(=O)(=O)N(C)Cc4nccs4)cc3)c3ccccc3n2)cc1C
12,< 1,Cc1sc(NC(=O)Cc2ccc3c(c2)OCO3)nc1-c1ccc2c(c1)CCN2C(=O)c1ccccc1
13,< 1,CC(=O)c1c(C)oc2ccc(N(C(=O)Oc3ccccc3)S(=O)(=O)c3ccccc3)cc12
14,< 1,COc1cccc(CNC(=O)c2ccc(N3CCCC3)c(NC(=O)Nc3ccccc3F)c2)c1
15,< 1,CCOC(=O)c1c(C)c(-c2ccccc2)n(CC(=O)NCc2ccccc2)c1C
16,< 1,Cc1ccc(S(=O)(=O)Nc2cccc(C(=O)Nc3nc(-c4ccc(Cl)cc4)cs3)c2)cc1
17,25.4,CNc1ncc(-c2cccc3ccccc23)o1
18,< 1,CSc1ccccc1-c1ccc(Nc2nc(-c3ccncc3)nc3ccccc23)cc1F
19,< 1,Cc1ccc(-c2cc(C(=O)Nc3ccc(-n4cncn4)cc3)c3ccccc3n2)cc1C
20,> 59,Cn1c(CN2CCCC2)nc2cc(NC(=O)COc3ccc(Cl)cc3)ccc21
21,< 1,COc1cccc(NC(=O)c2cccc3c(=O)c4c([nH]c23)CCCC4)c1
22,> 52,O=C(Nc1ccc([S+](=O)([O-])Nc2nccs2)cc1)c1ncn[nH]1
23,< 1,COc1ccccc1C(=O)Nc1ccccc1C(=O)Nc1cccc(SC(F)(F)F)c1
24,< 1,CC(C)(C)c1ccc(C(=O)N2CC(=O)Nc3ccc(F)cc3C2c2ccc(F)cc2)cc1 (stereo not given)
25,1.76,Cc1ccc(Cl)cc1NS(=O)(=O)c1cc2c(cc1F)NC(=O)CC2
26,< 1,Cc1noc(C)c1-c1ccc2ncnc(NCc3ccc4[nH]ccc4c3)c2c1
